# Reference: patent publication US5623049A (Bayer Aktiengesellschaft, priority 1993, dated 1997)
# Columns and labels:
# [1] = Stability towards nucleases: T-lymphocyte extract; assay type: in vitro ADME; details: 75 μg of oligomer, nuclease buffer, 37° C., 3 hours; note: key: '+' denotes stability; no enzymic degradation
# Experimental: (§1) Cell extracts from T-lymphocytes and blood were also employed for the stability investigations in addition to the purified, defined nucleases. For this purpose, 50 ml of cell suspension were centrifuged down at 2000 rpm, taken up in 500 μl of Tris/HCl buffer, pH 7.5; 40 mM CaCl2, and lysed with 5 μl of 20% SDS. Following dialysis against 0.1 M Tris/HCl, pH 7.5; 40 mM CaCl2, and a change of buffer after 4 hours, 5 μl were employed directly in the test. Blood was employed directly following lysis with doubly distilled H2 O. A 25mer oligonucleotide diester was employed as the positive control for digestion by the nucleases.
# (§2) Subsequently, the gel was analysed by UV shadowing. […] The oligomers are stable towards the nucleases and cell extracts which were tested.
# [2] = Stability towards proteases: blood extract; assay type: in vitro ADME; details: 75 μg of oligomer, 5 μl of lysed blood, protease buffer, 37° C., 3 hours; note: key: '+' denotes stability; no enzymic degradation
# Experimental: (§3) Cell extracts from T lymphocytes and blood were also employed for the stability investigations in addition to the purified, defined proteases. For this purpose, 50 ml of cell suspension were centrifuged down at 2000 rpm, taken up in 500 μl of Tris/HCl buffer, pH 7.5; 40 mM CaCl2, and lysed with 5 μl of 20% SDS. Following dialysis against 0.1 M Tris/HCl, pH 7.5; 40 mM CaCl2, and a change of buffer after 4 hours, 5 μl were employed directly in the test. Blood was lysed directly with doubly distilled H2 O and 5 μl were then employed in the test. Bovine serine albumin (BSA) and lysozyme were used as positive controls for digestion by the proteases.
# (§4) Subsequently, the gel was analysed by UV shadowing.
# [3] = Stability towards nucleases: blood; assay type: in vitro ADME; details: 75 μg of oligomer, lysed blood, nuclease buffer, 37° C., 3 hours; note: key: '+' denotes stability; no enzymic degradation
# Experimental: as §1, §2
# Proteinase K = Proteinase K (Parengyodontium album, UniProt P06873); experiment: Stability towards proteases: Proteinase K; assay type: in vitro ADME; details: 75 μg of oligomer, 5 μl of protease, 37° C., 3 hours; PAGE, UV shadowing, silver staining; note: key: '+' denotes stability; no enzymic degradation
# Experimental: as §4
# Endoprotease LYS--C = Endoprotease LYS--C (Lysobacter enzymogenes, UniProt Q7M135); experiment: Stability towards proteases: Endoprotease LYS--C; assay type: in vitro ADME; details: 75 μg of oligomer, 5 μl of protease, 37° C., 3 hours; PAGE, UV shadowing, silver staining; note: key: '+' denotes stability; no enzymic degradation
# Experimental: as §4
# [4] = Stability towards proteases: extracts of T-lymphocyte cells; assay type: in vitro ADME; details: 75 μg of oligomer, 5 μl of extract, protease buffer, 37° C., 3 hours; note: key: '+' denotes stability; no enzymic degradation
# Experimental: as §3, §4
# Trypsin = experiment: Stability towards proteases: Trypsin; assay type: in vitro ADME; details: 75 μg of oligomer, 5 μl of protease, 37° C., 3 hours; PAGE, UV shadowing, silver staining; note: key: '+' denotes stability; no enzymic degradation
# Experimental: as §4
# Pronase E = experiment: Stability towards proteases: Pronase E; assay type: in vitro ADME; details: 75 μg of oligomer, 5 μl of protease, 37° C., 3 hours; PAGE, UV shadowing, silver staining; note: key: '+' denotes stability; no enzymic degradation
# Experimental: as §4
# Protease IX = experiment: Stability towards proteases: Protease IX; assay type: in vitro ADME; details: 75 μg of oligomer, 5 μl of protease, 37° C., 3 hours; PAGE, UV shadowing, silver staining; note: key: '+' denotes stability; no enzymic degradation
# Experimental: as §4
# [5] = Stability of nucleic acid-binding oligomers towards proteases and nucleases (overall statements); assay type: in vitro ADME; details: 37° C., 3 hours
# Experimental: For this purpose, the nucleic acid-binding oligomers were treated-with non-specific and specific proteases, such as, for example, pronase E, proteinase K, trypsin, endoprotease Lys.C, V8 protease, protease IX and protease XXI, nucleases, such as, for example, S1 nuclease and Ba131 nuclease, phosphodiesterase, and cell extracts and organ extracts and blood serum and blood extracts which contain various nucleases and proteases. The oligomers were examined for degradation by polyacrylamide gel electrophoresis and UV shadowing on TLC plates containing UV indicator and by silver-staining the polyacrylamide gels.
# as §3, with “the proteases. […]” for “the proteases.”
# Protease XXI = experiment: Stability towards proteases: Protease XXI; assay type: in vitro ADME; details: 75 μg of oligomer, 5 μl of protease, 37° C., 3 hours; PAGE, UV shadowing, silver staining; note: key: '+' denotes stability; no enzymic degradation
# Experimental: as §4
# Bal31 nuclease = experiment: Stability towards nucleases: Bal31 nuclease; assay type: in vitro ADME; details: 75 μg of oligomer, 5 μl of nuclease (40 units), 37° C., 3 hours; PAGE, UV shadowing; note: key: '+' denotes stability; no enzymic degradation
# Experimental: as §2
# S1 nuclease = biological target: T1, S1 nuclease (Aspergillus oryzae, UniProt P24021); experiment: Stability towards nucleases: S1 nuclease; assay type: in vitro ADME; details: 75 μg of oligomer, 5 μl of nuclease (40 units), 37° C., 3 hours; PAGE, UV shadowing; note: key: '+' denotes stability; no enzymic degradation
# T1 sequence (P24021 21-287): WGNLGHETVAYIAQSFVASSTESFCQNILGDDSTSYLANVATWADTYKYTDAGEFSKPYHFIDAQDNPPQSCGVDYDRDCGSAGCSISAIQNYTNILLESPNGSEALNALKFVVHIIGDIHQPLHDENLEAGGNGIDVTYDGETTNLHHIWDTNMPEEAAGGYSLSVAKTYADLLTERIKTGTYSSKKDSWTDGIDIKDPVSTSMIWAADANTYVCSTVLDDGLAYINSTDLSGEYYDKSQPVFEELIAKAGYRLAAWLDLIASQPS
# Experimental: as §2
# [6] = tested on: double-stranded plasmid DNA containing two poly-adenine sequence regions; experiment: Strand displacement in double-stranded plasmid DNA; details: S1 nuclease digestion at high salt concentrations
# Experimental: Double-stranded, circular plasmid DNA, which is of 4880 base pairs in length and which contains two poly-adenine sequence regions having at least nine consecutive adenine nucleotides, which sequence regions are at a distance apart of 1150 base pairs, is used in the tests described here.
# Subsequently, 4 μl of buffer (250 mM Na acetate, 1 M NaCl, 2.5% glycerol, 5 mM ZnCl2, pH 4.4) were added to all the samples while 1 μl of S1 nuclease from Aspergillus oryzae (from Boehringer Mannheim), having an activity of 10 U/μl, was added to each of samples 2 to 6. After having been incubated at 30° C. for 15 minutes, the samples were placed on ice, 1 μl of 0.5 M EDTA and 3 μl of loading buffer (50% glycerol, 0.25% bromophenol blue in 40 mM Tris/HCl, 20 mM sodium acetate, 1 mM EDTA, pH=7.2) were added, and, without delay, the samples were fractionated electrophoretically on 1.2% agarose gels and, after staining with ethidium bromides, the sizes of the resulting plasmid fragments on the gel were determined by comparison with a molecular weight standard (1-kb ladder, from Gibco-BRL, D-7514 Eggenstein) on a transilluminator using 254 nm UV light.
# Chain of Proteinase K (P06873 106-384): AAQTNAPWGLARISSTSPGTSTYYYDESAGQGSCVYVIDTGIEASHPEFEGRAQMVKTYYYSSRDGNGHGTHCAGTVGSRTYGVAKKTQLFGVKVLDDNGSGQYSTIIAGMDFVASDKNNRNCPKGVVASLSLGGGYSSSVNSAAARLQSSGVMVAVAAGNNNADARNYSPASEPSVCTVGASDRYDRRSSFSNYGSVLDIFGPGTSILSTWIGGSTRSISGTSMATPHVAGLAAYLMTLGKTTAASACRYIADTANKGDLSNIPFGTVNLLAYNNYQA
# Chain of Endoprotease LYS--C (Q7M135 whole entry): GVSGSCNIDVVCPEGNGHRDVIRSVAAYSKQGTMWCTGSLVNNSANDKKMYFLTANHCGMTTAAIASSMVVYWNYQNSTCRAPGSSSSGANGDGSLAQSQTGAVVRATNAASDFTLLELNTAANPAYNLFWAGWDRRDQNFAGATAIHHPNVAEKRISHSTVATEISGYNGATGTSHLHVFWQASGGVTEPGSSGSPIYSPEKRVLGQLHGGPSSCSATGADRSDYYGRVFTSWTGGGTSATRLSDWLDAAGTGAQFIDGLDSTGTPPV
substance,measurement,setting,value
H--(III T)12 --Lys--OH [H-(IIIT)12 -Lys--OH],"Stability towards T-lymphocyte extract, nuclease test",[1],+
same,"Stability towards extract of blood, protease test",[2],+
same,"Stability towards blood, nuclease test",[3],+
same,Stability towards Proteinase K,Proteinase K,+
same,Stability towards Endoprotease LYS--C,Endoprotease LYS--C,+
same,"Stability towards extracts of T-lymphocyte cells (HUT, U 937), protease test",[4],+
same,Stability towards Trypsin,Trypsin,+
same,Stability towards Pronase E,Pronase E,+
same,Stability towards Protease IX,Protease IX,+
same,Stability towards the proteases and cell extracts which were tested,[5],stable
same,Stability towards Protease XXI,Protease XXI,+
same,Stability towards Bal31 nuclease,Bal31 nuclease,+
same,Stability towards S1 nuclease,S1 nuclease,+
same,"Binding to double-stranded DNA (strand displacement), result in words",[6],concentration-dependent and sequence-selective binding
H--(III T)8 --Ala--OH [H-(IIIT)8 -Ala--OH],"Stability towards T-lymphocyte extract, nuclease test",[1],+
same,"Stability towards extract of blood, protease test",[2],+
same,"Stability towards blood, nuclease test",[3],+
same,Stability towards Proteinase K,Proteinase K,+
same,Stability towards Endoprotease LYS--C,Endoprotease LYS--C,+
same,"Stability towards extracts of T-lymphocyte cells (HUT, U 937), protease test",[4],+
same,Stability towards Trypsin,Trypsin,+
same,Stability towards Pronase E,Pronase E,+
same,Stability towards Protease IX,Protease IX,+
same,Stability towards the proteases and cell extracts which were tested,[5],stable
same,Stability towards Protease XXI,Protease XXI,+
same,Stability towards Bal31 nuclease,Bal31 nuclease,+
same,Stability towards S1 nuclease,S1 nuclease,+
